Columns and labels:
[1] = Oil component (base) solubility test; assay type: physicochemical; details: in propylene glycol fatty acid ester
Method: Oil Component (Base) Solubility Test
(75% humidity), and at 60° C.

[2] = tested on: IL-6 dependent RARα(+) human multiple myeloma cells U266; details: SCID mice, oral 10 mg/kg/day for 28 consecutive days, FIG. 2

solubility and stability in the dissolved solution [1]	SMILES	growth of U266 cells (volume of tumor) [2]
optimum	CC1(C)CCC(C)(C)c2cc(NC(=O)c3ccc(C(=O)O)cc3)ccc21 [Tamibarotene, 4-[(5,6,7,8-tetrahydro-5,5,8,8-tetramethyl-2-naphthalenyl)carbamoyl]benzoic acid]	
	CC1=C(/C=C/C(C)=C/C=C/C(C)=C/C(=O)O)C(C)(C)CCC1 [ATRA, all-trans retinoic acid]	inhibited the growth
